Source: patent US20200331850A1, “NOVEL SULFONAMIDE CARBOXAMIDE COMPOUNDS” (Inflazome Limited, priority 2017, published 2020)
Counter-ions that a name gives are not always drawn.

Each compound was assayed against NLRP3 (Homo sapiens, UniProt Q96P20) (assay: Human whole blood IL1β release assay (LPS + nigericin, AlphaLisa IL-1β)). Details: NLRP3 inhibitory activity in human whole blood, IL-1β release, 10 μM nigericin, read-out: HWB IC50.
Format: cell-based
Design: Plate out 80 μl of whole blood containing 1βg/ml of LPS in 96-well, clear bottom cell culture plate; from tissue; host or cells: human whole blood from healthy donors, LPS-primed and nigericin-stimulated
Procedure: For systemic delivery, the ability to inhibit NLRP3 when the compounds are present within the bloodstream is of great importance. For this reason, the NLRP3 inhibitory activity of a number of compounds in human whole blood was investigated in accordance with the following protocol.
Human whole blood in Li-heparin tubes was obtained from healthy donors from a volunteer donor panel. • 1. Plate out 80 μl of whole blood containing 1βg/ml of LPS in 96-well, clear bottom cell culture plate (Corning #3585) • 2. Add 10 μl compound (8 points half-log dilution with 10 μM top dose) or vehicle (DMSO 0.1% FAC) to the appropriate wells • 3. Incubate for 3 hrs at 37° C., 5% CO2 • 4. Add 10 μl Nigericin (Sigma # N7143) (10 μM FAC) to all wells • 5. Incubate for 1 hr at 37° C., 5% CO2 • 6. At the end of the incubation period, spin plates at 300×g for 5 mins to pellet cells and remove 20 μl of supernatant and add to 96-well v-bottom plates for IL-1β analysis (note: these plates containing the supernatants can be stored at −80° C. to be analysed at a later date) • 7. IL-1β was measured according to the manufacturer protocol (Perkin Elmer-AlphaLisa IL-1 Kit AL220F-5000) • 8. IC50 data is fitted to a non-linear regression equation (log inhibitor vs response-variable slope 4-parameters)

NLRP3, sequence (Q96P20 whole entry): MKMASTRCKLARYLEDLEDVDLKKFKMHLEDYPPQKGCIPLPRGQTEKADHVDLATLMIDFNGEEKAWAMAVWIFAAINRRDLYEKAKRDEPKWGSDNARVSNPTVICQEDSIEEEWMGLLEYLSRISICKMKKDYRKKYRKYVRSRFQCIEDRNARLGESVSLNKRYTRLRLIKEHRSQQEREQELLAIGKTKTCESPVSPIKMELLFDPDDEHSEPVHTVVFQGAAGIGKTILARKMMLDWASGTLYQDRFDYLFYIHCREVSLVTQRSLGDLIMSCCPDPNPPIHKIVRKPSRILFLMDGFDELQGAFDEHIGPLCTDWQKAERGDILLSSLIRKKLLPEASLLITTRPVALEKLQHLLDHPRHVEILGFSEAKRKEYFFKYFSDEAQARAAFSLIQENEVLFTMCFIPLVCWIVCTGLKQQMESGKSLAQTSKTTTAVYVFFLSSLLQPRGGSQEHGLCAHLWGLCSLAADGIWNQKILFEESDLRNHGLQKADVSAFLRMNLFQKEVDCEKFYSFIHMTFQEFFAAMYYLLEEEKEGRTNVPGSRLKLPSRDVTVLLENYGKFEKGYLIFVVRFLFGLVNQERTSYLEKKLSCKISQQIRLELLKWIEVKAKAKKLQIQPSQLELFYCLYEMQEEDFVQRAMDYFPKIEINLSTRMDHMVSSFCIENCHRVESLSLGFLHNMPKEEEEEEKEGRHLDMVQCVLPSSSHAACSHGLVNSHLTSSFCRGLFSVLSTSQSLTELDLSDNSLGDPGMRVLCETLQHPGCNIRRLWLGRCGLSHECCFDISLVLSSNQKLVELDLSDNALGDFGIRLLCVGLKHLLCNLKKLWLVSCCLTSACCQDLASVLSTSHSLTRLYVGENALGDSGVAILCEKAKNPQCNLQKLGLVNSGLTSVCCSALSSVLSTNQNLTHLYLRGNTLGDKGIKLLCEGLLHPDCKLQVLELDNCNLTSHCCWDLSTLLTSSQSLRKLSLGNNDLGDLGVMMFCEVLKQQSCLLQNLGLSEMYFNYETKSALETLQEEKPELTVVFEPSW

Row | Structure (SMILES) | IC50 [µM]
1 | CCN1CCC(CS(=O)(=O)NC(=O)Nc2c3c(cc4c2CCC4)CCC3)CC1 [Example 1, 1-(1-Ethylpiperidin-4-yl)-N-((1,2,3,5,6,7-hexahydro-s-indacen-4-yl)carbamoyl)methanesulfonamide, potassium salt] | ≤ 1
2 | CCN(CCS(=O)(=O)NC(=O)Nc1c2c(cc3c1CCC3)CCC2)Cc1ccccc1 [Example 11, 2-(Benzyl(ethyl)amino)-N-((1,2,3,5,6,7-hexahydro-s-indacen-4-yl)carbamoyl)ethane-1-sulfonamide, potassium salt] | ≤ 7.5
3 | CCN(CCCCS(=O)(=O)NC(=O)Nc1c2c(cc3c1CCC3)CCC2)Cc1ccccc1 [Example 13, 4-(Benzyl(ethyl)amino)-N-((1,2,3,5,6,7-hexahydro-s-indacen-4-yl)carbamoyl)butane-1-sulfonamide, potassium salt] | ≤ 5
4 | COCCCS(=O)(=O)NC(=O)Nc1c2c(cc3c1CCC3)CCC2 [Example 14, N-((1,2,3,5,6,7-Hexahydro-s-indacen-4-yl)carbamoyl)-3-methoxypropane-1-sulfonamide, Potassium Salt] | ≤ 5
5 | O=C(Nc1c2c(cc3c1CCC3)CCC2)NS(=O)(=O)Cc1cccnc1 [Example 20, N-((1,2,3,5,6,7-Hexahydro-s-indacen-4-yl)carbamoyl)-1-(pyridin-3-yl)methanesulfonamide, potassium salt] | ≤ 5
6 | CN1CCC(CS(=O)(=O)NC(=O)Nc2c3c(cc4c2CCC4)CCC3)C1 (centres unmarked) [Example 23, N-((1,2,3,5,6,7-Hexahydro-s-indacen-4-yl)carbamoyl)-1-(1-methylpyrrolidin-3-yl)methanesulfonamide, Potassium Salt] | ≤ 1
7 | CCN(C)CCCS(=O)(=O)NC(=O)Nc1c2c(cc3c1CCC3)CCC2 [Example 27, 3-(Ethyl(methyl)amino)-N-((1,2,3,5,6,7-hexahydro-s-indacen-4-yl)carbamoyl)propane-1-sulfonamide, potassium salt] | ≤ 1
8 | O=C(Nc1c2c(cc3c1CCC3)CCC2)NS(=O)(=O)CCN1CCCCC1 [Example 28, N-((1,2,3,5,6,7-Hexahydro-s-indacen-4-yl)carbamoyl)-2-(piperidin-1-yl)ethane-1-sulfonamide, Potassium Salt] | ≤ 1
9 | Cn1cc(CS(=O)(=O)NC(=O)Nc2c3c(cc4c2CCC4)CCC3)cn1 [Example 35, N-((1,2,3,5,6,7-hexahydro-s-indacen-4-yl)carbamoyl)-1-(1-methyl-1H-pyrazol-4-yl)methanesulfonamide] | ≤ 5
10 | CC(CN(C)C)CS(=O)(=O)NC(=O)Nc1c2c(cc3c1CCC3)CCC2 (centres unmarked) [Example 36, 3-(Dimethylamino)-N-((1,2,3,5,6,7-hexahydro-s-indacen-4-yl)carbamoyl)-2-methylpropane-1-sulfonamide, potassium salt] | ≤ 1
11 | CCN(CC)CCCS(=O)(=O)NC(=O)Nc1c(-c2ccncc2)cc(F)c2c1CCC2 [Example 44, 3-(Diethylamino)-N-((7-fluoro-5-(pyridin-4-yl)-2,3-dihydro-1H-inden-4-yl)carbamoyl)propane-1-sulfonamide] | ≤ 1
12 | CC(=O)N(C)CCCS(=O)(=O)NC(=O)Nc1c2c(cc3c1CCC3)CCC2 [Example 53, N-(3-(N-((1,2,3,5,6,7-Hexahydro-s-indacen-4-yl)carbamoyl)sulfamoyl)propyl)-N-methylacetamide, Potassium Salt] | ≤ 1
13 | COc1cc(-c2cc(F)cc(C(C)C)c2NC(=O)NS(=O)(=O)CC2CCN(C)C2)ccn1 (centres unmarked) [Example 58, N-((4-Fluoro-2-isopropyl-6-(2-methoxypyridin-4-yl)phenyl)carbamoyl)-1-(1-methylpyrrolidin-3-yl)methanesulfonamide] | ≤ 1
14 | COc1cc(-c2ccc3c(c2NC(=O)NS(=O)(=O)CC2CCN(C)C2)CCC3)ccn1 (centres unmarked) [Example 59, N-((5-(2-Methoxypyridin-4-yl)-2,3-dihydro-1H-inden-4-yl)carbamoyl)-1-(1-methylpyrrolidin-3-yl)methanesulfonamide] | ≤ 1
15 | COc1cc(-c2ccc3c(c2NC(=O)NS(=O)(=O)CCOC(C)C)CCO3)ccn1 [Example 62, 2-Isopropoxy-N-((5-(2-methoxypyridin-4-yl)-2,3-dihydro-benzofuran-4-yl)carbamoyl)ethanesulfonamide, sodium salt] | ≤ 1
16 | CN(CCCS(=O)(=O)NC(=O)Nc1c2c(cc3c1CCC3)CCC2)Cc1ccccc1 [Example 67, 3-(Benzyl(methyl)amino)-N-((1,2,3,5,6,7-hexahydro-s-indacen-4-yl)carbamoyl)propane-1-sulfonamide, potassium salt] | ≤ 10
17 | CON(C)CCCS(=O)(=O)NC(=O)Nc1c2c(cc3c1CCC3)CCC2 [Example 70, N-((1,2,3,5,6,7-Hexahydro-s-indacen-4-yl)carbamoyl)-3-(methoxy(methyl)amino)propane-1-sulfonamide, Potassium Salt] | ≤ 5
18 | CC1(C)C2CC[C@@]1(CS(=O)(=O)NC(=O)Nc1c3c(cc4c1CCC4)CCC3)/C(=N/O)C2 [Example 71, N-((1,2,3,5,6,7-Hexahydro-s-indacen-4-yl)carbamoyl)-1-((1S,E)-2-(hydroxyimino)-7,7-dimethylbicyclo[2.2.1]heptan-1-yl)methane sulfonamide, Potassium Salt] | ≤ 10
19 | O=C(Nc1c2c(cc3c1CCC3)CCC2)NS(=O)(=O)CCCN1CCC1 [Example 72, 3-(Azetidin-1-yl)-N-((1,2,3,5,6,7-hexahydro-s-indacen-4-yl)carbamoyl)propane-1-sulfonamide, Potassium Salt] | ≤ 1
20 | C#CCN(C)CCCS(=O)(=O)NC(=O)Nc1c2c(cc3c1CCC3)CCC2 [Example 73] | ≤ 5
21 | CN1CCOC(CS(=O)(=O)NC(=O)Nc2c3c(cc4c2CCC4)CCC3)C1 (centres unmarked) [Example 74, N-((1,2,3,5,6,7-Hexahydro-s-indacen-4-yl)carbamoyl)-1-(4-methylmorpholin-2-yl)methanesulfonamide, Potassium Salt] | ≤ 5
22 | CC(CCS(=O)(=O)NC(=O)Nc1c2c(cc3c1CCC3)CCC2)N(C)C (centres unmarked) [Example 78, 3-(Dimethylamino)-N-((1,2,3,5,6,7-hexahydro-s-indacen-4-yl)carbamoyl)butane-1-sulfonamide, potassium salt] | ≤ 1
23 | CN1CC2(COC(CS(=O)(=O)NC(=O)Nc3c4c(cc5c3CCC5)CCC4)C2)C1 (centres unmarked) [Example 80, N-((1,2,3,5,6,7-Hexahydro-s-indacen-4-yl)carbamoyl)-1-(2-methyl-6-oxa-2-azaspiro[3.4]octan-7-yl)methanesulfonamide] | ≤ 5
24 | CN(C)CC(C)(C)CS(=O)(=O)NC(=O)Nc1c2c(cc3c1CCC3)CCC2 [Example 81, 3-(Dimethylamino)-N-((1,2,3,5,6,7-hexahydro-s-indacen-4-yl)carbamoyl)-2,2-dimethylpropane-1-sulfonamide] | ≤ 5
25 | CN1CCCC(CS(=O)(=O)NC(=O)Nc2c3c(cc4c2CCC4)CCC3)C1 (centres unmarked) [Example 83, N-((1,2,3,5,6,7-Hexahydro-s-indacen-4-yl)carbamoyl)-1-(1-methylpiperidin-3-yl)methanesulfonamide] | ≤ 1
26 | CCN1CCCC(CS(=O)(=O)NC(=O)Nc2c3c(cc4c2CCC4)CCC3)C1 (centres unmarked) [Example 84, 1-(1-Ethylpiperidin-3-yl)-N-((1,2,3,5,6,7-hexahydro-s-indacen-4-yl)carbamoyl)methanesulfonamide] | ≤ 1
